Results: patent US8134015B2, “Compound inhibiting in vivo phosphorous transport and medicine containing the same” (Kyowa Hakko Kirin Co., Ltd., priority 2003, dated 2012)
Where a name gives a salt, the structure may show the parent alone.

Target: T1, rat NaPi-2b (Rattus norvegicus, UniProt Q9JJ09)
T1 construct: expressed in transfected cells; host or cells: Xenopus oocytes injected with cRNA
T1 sequence (Q9JJ09 1-695): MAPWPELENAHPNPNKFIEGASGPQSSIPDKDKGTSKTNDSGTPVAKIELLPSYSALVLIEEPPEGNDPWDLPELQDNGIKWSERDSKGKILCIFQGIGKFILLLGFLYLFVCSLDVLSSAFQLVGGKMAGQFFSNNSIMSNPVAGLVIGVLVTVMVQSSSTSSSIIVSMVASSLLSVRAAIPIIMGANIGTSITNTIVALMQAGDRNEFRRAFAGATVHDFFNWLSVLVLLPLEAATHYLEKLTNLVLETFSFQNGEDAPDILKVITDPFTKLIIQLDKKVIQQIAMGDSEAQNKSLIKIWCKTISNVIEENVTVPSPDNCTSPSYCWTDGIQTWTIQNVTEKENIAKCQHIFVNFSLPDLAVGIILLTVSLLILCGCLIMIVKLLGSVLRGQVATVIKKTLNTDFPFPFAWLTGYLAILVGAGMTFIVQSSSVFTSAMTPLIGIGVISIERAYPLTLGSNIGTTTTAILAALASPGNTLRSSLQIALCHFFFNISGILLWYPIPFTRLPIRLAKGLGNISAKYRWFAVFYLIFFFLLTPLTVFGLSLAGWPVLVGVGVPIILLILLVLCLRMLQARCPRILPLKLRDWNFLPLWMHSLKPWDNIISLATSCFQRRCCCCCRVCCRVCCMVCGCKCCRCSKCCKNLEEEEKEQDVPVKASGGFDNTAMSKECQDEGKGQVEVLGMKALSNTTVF
Assay: Sodium-dependent phosphate uptake of Xenopus oocytes which expressed NaPi-2b (32P)
Assay type: cell-based
Details: for IC50: Xenopus oocytes expressing rat NaPi-2b, 32P radioactive phosphorus, read-out: IC50 (phosphate uptake inhibitory activity); for inhibition at 300 µM: phosphate uptake, oocytes expressing rat NaPi-2b, determined from inhibition curve
How it was run: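 Rat NaPi-2b cloned from small-intestine cDNA; cRNA injected into Xenopus oocytes, expression for 2 days. Phosphate uptake inhibition measured with 32P; percent inhibition at 300 μM and 100 μM read from the same inhibition curve.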

IC50 [µM] | inhibition at 300 µM [%] | Compound
12.2 | – | Cc1ccc(/C=N/NC(=O)c2cscc2NC(=O)c2cccc(CN3CCN(CCO)CC3)c2)cc1 [Compound 981, 3-[4-(2-Hydroxy-ethyl)-piperazin-1-ylmethyl]-N-[4-(4-methyl-benzylidene-hydrazinocarbonyl)-thiophen-3-yl]-benzamide]
2.47 | – | Cc1ccc(/C=N/NC(=O)c2cc(Br)ccc2NC(=O)c2ccc(CN3CCN(CC(=O)N4CCOCC4)CC3)cc2)cc1C [Compound 305, N-[4-Bromo-2-(3,4-dimethyl-benzylidene-hydrazinocarbonyl)-phenyl]-4-[4-(2-morpholin-4-yl-2-oxo-ethyl)-piperazin-1-ylmethyl]-benzamide]
– | 77.6 | Cc1cccc(/C=N/NC(=O)c2cc(Br)ccc2NC(=O)c2ccc(CN3CCC(CCO)CC3)cc2)c1 [Compound 742, N-[4-Bromo-2-(3-methyl-benzylidene-hydrazinocarbonyl)-phenyl]-4-[4-(2-hydroxy-ethyl)-piperidin-1-ylmethyl]-benzamide]
4.24 | – | CCOCCN(CCOCC)Cc1ccc(C(=O)Nc2ccc(Br)cc2C(=O)N/N=C/c2cccc(F)c2)cc1 [Compound 737, 4-{[Bis-(2-ethoxy-ethyl)-amino]-methyl}-N-[4-bromo-2-(3-fluoro-benzylidene-hydrazinocarbonyl)-phenyl]-benzamide]
61 | – | O=C(Nc1ccccc1C(=O)N/N=C/c1ccccc1F)c1ccccc1 [Compound 225, N-[2-(2-Fluoro-benzylidene-hydrazinocarbonyl)-phenyl]-benzamide]
88 | – | CN(CCCCCCN(C)Cc1cccc(C(=O)Nc2ccc(Cl)cc2C(=O)N/N=C/c2ccc(Cl)c(C(F)(F)F)c2)c1)Cc1cccc(C(=O)Nc2ccc(Cl)cc2C(=O)N/N=C/c2ccc(Cl)c(C(F)(F)F)c2)c1 [Compound 690, N1-[4-Chloro-2-({2-[(E)-1-(4-chloro-3-trifluoromethyl-phenyl)methylidene]hydrazino}carbonyl)phenyl)-3-{[{6-[(3-{[4-chloro-2-({2-[(E)-1-(4-chloro-3-trifluoromethyl-phenyl)methylidene]hydrazino}-carbonyl}anilino}carbonyl}benzyl}(methyl)amino)hexyl)(methyl)amino]-methyl]benzamide]
0.98 | – | O=C(Nc1ccc(Br)cc1C(=O)N/N=C/c1cccc(F)c1)c1cccc(CSc2ccncc2)c1 [Compound 195, N-[4-Bromo-2-(3-fluoro-benzylidene-hydrazinocarbonyl)-phenyl]-3-(pyridin-4-ylsulfanylmethyl)-benzamide]
0.17 | – | Cc1ccc(/C=N/NC(=O)c2cc(Br)ccc2NC(=O)c2ccccn2)cc1 [Compound 356, Pyridin-2-carboxylic acid [4-bromo-2-(4-methyl-benzylidene-hydrazinocarbonyl)-phenyl]-amide hydrochloride]
– | 85.1 | CCN(CC)CCN(C)Cc1cccc(-c2nc3sc4c(c3c(=O)n2/N=C/c2ccc(Cl)c(C(F)(F)F)c2)CCCC4)c1 [Compound 674, 3-[(4-Chloro-3-trifluoromethyl-benzylidene)-amino]-2-(3-{[(2-diethylamino-ethyl)-methyl-amino]-methyl}-phenyl)-5,6,7,8-tetrahydro-3H-benzo[4,5]thieno[2,3-d]pyrimidin-4-one]
< 3 | – | CCN(CC)CCN(C)Cc1cccc(C(=O)Nc2ccc(I)cc2C(=O)N/N=C/c2cccc(O)c2)c1 [Compound 480, 3-{[(2-Diethylamino-ethyl)-methyl-amino]-methyl}-N-[2-(3-hydroxy-benzylidene-hydrazinocarbonyl)-4-iodo-phenyl]-benzamide]
< 3 | – | Cc1ccc(/C=N/NC(=O)c2c(NC(=O)c3cccc(CN4CCN(CCO)CC4)c3)sc3c2CCCC3)cc1C [Compound 621, N-[3-(3,4-Dimethyl-benzylidene-hydrazinocarbonyl)-4,5,6,7-tetrahydro-benzo[b]thiophen-2-yl]-3-[4-(2-hydroxy-ethyl)-piperazin-1-ylmethyl]-benzamide]
9.33 | – | Cc1ccc(/C=N/NC(=O)c2c(C)csc2NC(=O)c2cccc(CN(CC(C)O)CC(C)O)c2)cc1 (stereo not drawn) [Compound 588, 3-{[Bis-(2-hydroxy-propyl)-amino]-methyl}-N-[4-methyl-3-(4-methyl-benzylidene-hydrazinocarbonyl)-thiophen-2-yl]-benzamide]
2.15 | – | Cc1cc(C(=O)Nc2ccccc2C(=O)N/N=C/c2cccc(F)c2)c(C)o1 [Compound 514, 2,5-Dimethyl-furan-3-carboxylic acid [2-(3-fluoro-benzylidene-hydrazinocarbonyl)-phenyl]-amide]
3.7 | – | CCN(CC)CCN(C)Cc1cccc(C(=O)Nc2ccc(OCCOCCOC)cc2C(=O)N/N=C/c2ccc(C)c(C)c2)c1 [Compound 1035, 3-{[(2-Diethylamino-ethyl)-methyl-amino]-methyl}-N-{2-(3,4-dimethyl-benzylidene-hydrazinocarbonyl)-4-[2-(2-methoxy-ethoxy)-ethoxy]-phenyl}-benzamide]
– | 86.8 | Cc1ccc(/C=N/NC(=O)c2c(C)csc2NC(=O)c2cccc(CSCCS(=O)(=O)O)c2)cc1 [Compound 782, 2-{3-[4-Methyl-3-(4-methyl-benzylidene-hydrazinocarbonyl)-thiophen-2-ylcarbamoyl]-benzylsulfanyl}-ethanesulfonic acid]
15.6 | – | COc1ccc(C(=O)Nc2ccc(C)cc2C(=O)N/N=C/c2cccc(C)c2)cc1OC [Compound 148, 3,4-Dimethoxy-N-[4-methyl-2-(3-methyl-benzylidene-hydrazinocarbonyl)-phenyl]-benzamide]
< 3 | – | Cc1ccc(/C=N/NC(=O)c2c(C)csc2NC(=O)c2cccc(CN3CCC(O)CC3)c2)cc1C [Compound 593, N-[3-(3,4-Dimethyl-benzylidene-hydrazinocarbonyl)-4-methyl-thiophen-2-yl]-3-(4-hydroxy-piperidin-1-ylmethyl)-benzamide]
0.95 | – | CN(CCO)Cc1cccc(C(=O)Nc2ccc(Cl)cc2C(=O)N/N=C/c2cccc(F)c2)c1 [Compound 394, N-[4-Chloro-2-(3-fluoro-benzylidene-hydrazinocarbonyl)-phenyl]-3-{[(2-hydroxy-ethyl)-methyl-amino]-methyl}-benzamide]
< 1 | – | COc1ccc(C(=O)Nc2ccc(I)cc2C(=O)N/N=C/c2ccc(C)cc2)cc1OC [Compound 207, N-[4-Iodo-2-(4-methyl-benzylidene-hydrazinocarbonyl)-phenyl]-3,4-dimethoxy-benzamide]
– | 36.9 | Cc1ccc(/C=N/NC(=O)c2scc(C)c2NC(=O)c2cccc(CN3CCN(CCO)CC3)c2)cc1 [Compound 533, 3-[4-(2-Hydroxy-ethyl)-piperazin-1-ylmethyl]-N-[4-methyl-2-(4-methyl-benzylidene-hydrazinocarbonyl)-thiophen-3-yl]-benzamide]
18.9 | – | CCOc1ccc(C(=O)Nc2ccc(Br)cc2C(=O)N/N=C/c2ccc(C)c(C)c2)cc1 [Compound 504, N-[4-Bromo-2-(3,4-dimethyl-benzylidene-hydrazinocarbonyl)-phenyl]-4-ethoxy-benzamide]
0.63 | – | O=C(Nc1ccc(Cl)cc1C(=O)N/N=C/c1ccc(F)cc1)c1ccccn1 [Compound 360, Pyridin-2-carboxylic acid [4-chloro-2-(4-fluoro-benzylidene-hydrazinocarbonyl)-phenyl]-amide]
34.7 | – | CCN(CC)CCN(C)Cc1cccc(C(=O)Nc2cc(OCCOC)c(OCCOC)cc2C(=O)N/N=C/c2ccc(C)cc2)c1 [Compound 1029, N-[4,5-Bis-(2-methoxy-ethoxy)-2-(4-methyl-benzylidene-hydrazinocarbonyl)-phenyl]-3-{[(2-diethylamino-ethyl)-methyl-amino]-methyl}-benzamide]
– | 88.5 | Cc1csc(NC(=O)c2cccc(CSCCS(=O)(=O)O)c2)c1C(=O)N/N=C/c1ccc(Cl)c(C(F)(F)F)c1 [Compound 784, 2-{3-[3-(4-Chloro-3-trifluoromethyl-benzylidene-hydrazinocarbonyl)-4-methyl-thiophen-2-ylcarbamoyl]-benzylsulfanyl}-ethanesulfonic acid]
4.87 | – | Cc1cccc(/C=N/NC(=O)c2cc(Br)ccc2NC(=O)c2cccc(CSc3ccncc3)c2)c1 [Compound 197, N-[4-Bromo-2-(3-methyl-benzylidene-hydrazinocarbonyl)-phenyl]-3-(pyridin-4-ylsulfanylmethyl)-benzamide]
0.89 | – | COc1cc(OC)cc(C(=O)Nc2ccccc2C(=O)N/N=C/c2ccc(F)cc2)c1 [Compound 56, N-[2-(4-Fluoro-benzylidene-hydrazinocarbonyl)-phenyl]-3,5-dimethoxy-benzamide]

Compound | IC50 [µM] | inhibition at 300 µM [%]
CCN(CC)CCN(C)Cc1cccc(C(=O)Nc2ccc(OCCCCF)cc2C(=O)N/N=C/c2ccc(Cl)c(C(F)(F)F)c2)c1 [Compound 1060, N-[2-(4-Chloro-3-trifluoromethyl-benzylidene-hydrazinocarbonyl)-4-(4-fluoro-butoxy)-phenyl]-3-{[(2-diethylamino-ethyl)-methyl-amino]-methyl}-benzamide] | 0.44 | –
